Reference: patent US9113629B2, “4-amino-6-(4-substituted-phenyl)-picolinates and 6-amino-2-(4-substituted-phenyl)-pyrimidine-4-carboxylates and their use as herbicides” (DOW AGROSCIENCES LLC, priority 2013, dated 2015)
Where two headings read alike, the source gives them in different places.

Legend:
[1] = tested on: Key Broadleaf Weed and Crop Species; assay: Post-emergent Test II herbicidal activity (Table 5); format: in vivo; conditions: post-emergence, 336 h, post-emergent, 14 days after application; for pest or weed control at 70 g/ha: 70 g ai/ha; for pest or weed control at 140 g/ha: 140 g ai/ha
In short: (§1)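 Plants grown in Metro-Mix 360 (pH 6.0–6.8) in a greenhouse (~15 h photoperiod, 23–29 °C day) to first or second true leaf stage, then sprayed with compound in acetone/DMSO/aqueous crop-oil-surfactant carrier at 187 L/ha by track sprayer. Injury visually scored 0–100% versus untreated plants after 14 d.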

[2] = tested on: Key Grass and Sedge Weeds as well as Grass Crops; assay: Post-emergent Test II herbicidal activity (Table 6); format: in vivo; conditions: post-emergence, 336 h; for pest or weed control at 70 g/ha: application rate 70 g ai/ha; for pest or weed control at 140 g/ha: application rate 140 g ai/ha
In short: as §1

[3] = ABUTH: velvetleaf (Abutilon theophrasti), read-out: Visual Growth Reduction (%) 14 Days After Application ABUTH
[4] = BRSNN: oilseed-rape, canola (Brassica napus), read-out: Visual Growth Reduction (%) 14 Days After Application BRSNN
[5] = CHEAL: lambsquarters (Chenopodium album), read-out: Visual Growth Reduction (%) 14 Days After Application CHEAL
[6] = EPHHL: wild poinsettia (Euphorbia heterophylla), read-out: Visual Growth Reduction (%) 14 Days After Application EPHHL
[7] = HELAN: sunflower (Helianthus annuus), read-out: Visual Growth Reduction (%) 14 Days After Application HELAN
[8] = VIOTR: wild pansy (Viola tricolor), read-out: Visual Growth Reduction (%) 14 Days After Application VIOTR
[9] = CYPES: yellow nutsedge (Cyperus esculentus), read-out: Visual Growth Reduction (%) 14 Days After Application, CYPES
[10] = DIGSA: crabgrass (Digitaria sanguinalis), read-out: Visual Growth Reduction (%) 14 Days After Application, DIGSA
[11] = ECHCG: barnyardgrass (Echinochloa crus-galli), read-out: Visual Growth Reduction (%) 14 Days After Application, ECHCG
[12] = ORYSA: rice (Oryza sativa), read-out: Visual Growth Reduction (%) 14 Days After Application, ORYSA
[13] = SETFA: giant foxtail (Setaria faberi), read-out: Visual Growth Reduction (%) 14 Days After Application, SETFA
[14] = SORVU: grain sorghum (Sorghum vulgare), read-out: Visual Growth Reduction (%) 14 Days After Application, SORVU
[15] = TRZSS (wheat, Triticum aestivum), read-out: Visual Growth Reduction (%) 14 Days After Application, TRZSS
[16] = ZEAMX: maize, corn (Zea mays), read-out: Visual Growth Reduction (%) 14 Days After Application, ZEAMX
[17] = AMARE: redroot pigweed (Amaranthus retroflexus), read-out: Visual Growth Reduction (%) 14 Days After Application AMARE
[18] = Triticum aestivum, TRZSS (wheat), read-out: Visual Growth Reduction (%) 14 Days After Application, TRZSS

Structure (SMILES) | pest or weed control at 140 g/ha [1, 3] [%] | pest or weed control at 140 g/ha [1, 4] [%] | pest or weed control at 140 g/ha [1, 5] [%] | pest or weed control at 140 g/ha [1, 6] [%] | pest or weed control at 140 g/ha [1, 7] [%] | pest or weed control at 140 g/ha [1, 8] [%] | pest or weed control at 140 g/ha [2, 9] [%] | pest or weed control at 140 g/ha [2, 10] [%] | pest or weed control at 140 g/ha [2, 11] [%] | pest or weed control at 140 g/ha [2, 12] [%] | pest or weed control at 140 g/ha [2, 13] [%] | pest or weed control at 140 g/ha [2, 14] [%] | pest or weed control at 140 g/ha [2, 16] [%] | melting point [°C] | pest or weed control at 140 g/ha [1, 17] [%] | pest or weed control at 140 g/ha [2, 18] [%] | other results
C#Cc1ccc(-c2nc(C(=O)OC)c(Cl)c(N)c2C)cc1F [Compound 151, methyl 4-amino-3-chloro-6-(4-ethynyl-3-fluorophenyl)-5-methylpicolinate] | 95 to 100 | 85 to 94 | 95 to 100 | 0 to 29 | 85 to 94 | 0 to 29 | 75 to 84 | 0 to 29 | 45 to 59 | 0 to 29 | 60 to 74 | 60 to 74 | 75 to 84 | 130 to 132 | – | – | pest or weed control at 70 g/ha [1, 3]: 95 to 100%; pest or weed control at 70 g/ha [1, 4]: 75 to 84%; pest or weed control at 70 g/ha [1, 5]: 95 to 100%; pest or weed control at 70 g/ha [1, 6]: 0 to 29%; pest or weed control at 70 g/ha [1, 7]: 85 to 94%; pest or weed control at 70 g/ha [1, 8]: 0 to 29%; pest or weed control at 70 g/ha [2, 9]: 0 to 29%; pest or weed control at 70 g/ha [2, 10]: 0 to 29%; pest or weed control at 70 g/ha [2, 11]: 0 to 29%; pest or weed control at 70 g/ha [2, 12]: 0 to 29%; pest or weed control at 70 g/ha [2, 13]: 0 to 29%; pest or weed control at 70 g/ha [2, 14]: 60 to 74%; pest or weed control at 70 g/ha [2, 15]: 0 to 29%; pest or weed control at 140 g/ha [2, 15]: 0 to 29%; pest or weed control at 70 g/ha [2, 16]: 60 to 74%
C#Cc1ccc(-c2nc(C(=O)O)c(Cl)c(N)c2Cl)cc1 [Compound 153] | 95 to 100 | 95 to 100 | 95 to 100 | 0 to 29 | 95 to 100 | 0 to 29 | 45 to 59 | 45 to 59 | 0 to 29 | 0 to 29 | 75 to 84 | 0 to 29 | 60 to 74 | 160.9 to 162.6 | 95 to 100 | 60 to 74 | –
C#Cc1ccc(-c2nc(N)c(OC)c(C(=O)OC)n2)cc1 [Compound 166] | 0 to 29 | 0 to 29 | 60 to 74 | 95 to 100 | 85 to 94 | 0 to 29 | 45 to 59 | 0 to 29 | 0 to 29 | 0 to 29 | 0 to 29 | 0 to 29 | 45 to 59 | 148.2 to 150.9 | 95 to 100 | 0 to 29 | –
COC(=O)c1nc(-c2ccc(OC(F)(F)F)cc2)c(Cl)c(N)c1Cl [Compound 170] | 0 to 29 | 0 to 29 | 60 to 74 | 0 to 29 | 85 to 94 | 0 to 29 | 0 to 29 | 0 to 29 | 0 to 29 | 0 to 29 | 0 to 29 | 0 to 29 | 0 to 29 | 178.9 to 180.2 | 0 to 29 | 0 to 29 | –
